Measurements: patent publication US10519152B2, “Compounds and their use in treating cancer” (AstraZeneca AB, priority 2017, dated 2019)

Target: T1, Estrogen Receptor (ERα) in MCF-7 human ductal carcinoma breast cell line (Homo sapiens, UniProt P03372)
T1 construct: endogenous in cells; host or cells: MCF-7
T1 sequence (P03372 1-595): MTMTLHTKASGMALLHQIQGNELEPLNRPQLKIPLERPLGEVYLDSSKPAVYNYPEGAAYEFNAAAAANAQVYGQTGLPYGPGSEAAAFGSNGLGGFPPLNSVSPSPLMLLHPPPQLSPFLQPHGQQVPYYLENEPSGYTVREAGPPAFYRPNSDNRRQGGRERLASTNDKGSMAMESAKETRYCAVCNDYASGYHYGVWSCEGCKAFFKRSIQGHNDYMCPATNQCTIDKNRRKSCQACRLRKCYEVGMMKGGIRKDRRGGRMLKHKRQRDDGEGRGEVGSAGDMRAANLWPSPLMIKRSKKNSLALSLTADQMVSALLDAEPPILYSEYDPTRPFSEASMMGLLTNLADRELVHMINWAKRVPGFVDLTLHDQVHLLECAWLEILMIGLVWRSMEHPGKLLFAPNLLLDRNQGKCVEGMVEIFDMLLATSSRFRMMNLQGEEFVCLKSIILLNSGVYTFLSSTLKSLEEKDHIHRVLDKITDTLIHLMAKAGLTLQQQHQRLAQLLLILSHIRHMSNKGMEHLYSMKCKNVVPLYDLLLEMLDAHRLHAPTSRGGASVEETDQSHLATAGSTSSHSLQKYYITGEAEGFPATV
Experiment: MCF-7 ER degradation assay (cell based immuno-fluorescence)
Details: MCF-7 cells; for ER degradation ≥ 90% at 0.3 μM: ER degradation by fulvestrant at 0.3 μM is defined as 100%; for DC50: 18-22 hours incubation, 50% reduction of ERα expression, single experiment or average of two or more, read-out: MCF-7 ER degradation IC50
Summary of the method: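 MCF-7 human ductal carcinoma breast cells were seeded at 3.75×10^4 cells per mL (40 μL per well) in 384 well plates with phenol red free DMEM containing 2 mM L-Glutamine and 5% (v/v) Charcoal/Dextran treated foetal calf serum. After overnight culture, compounds were acoustically dispensed, incubated 18-22 hours, then cells were formaldehyde-fixed and immunostained for ERα.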

Structure (SMILES)	ER degradation ≥ 90% at 0.3 μM	DC50 [nM]
Cc1ncsc1-c1ccc(CNC(=O)[C@@H]2C[C@@H](O)CN2C(=O)[C@@H](NC(=O)COCCCCCN(C)CCOc2cc(F)c([C@@H]3c4[nH]c5ccccc5c4C[C@@H](C)N3CC(C)(C)F)c(F)c2)C(C)(C)C)cc1 [Example 49, (2S,4R)-1-((S)-2-(2-((5-((2-(3,5-difluoro-4-((1R,3R)-2-(2-fluoro-2-methylpropyl)-3-methyl-2,3,4,9-tetrahydro-1H-pyrido[3,4-b]indol-1-yl)phenoxy)ethyl)(methyl)amino)pentyl)oxy)acetamido)-3,3-dimethylbutanoyl)-4-hydroxy-N-(4-(4-methylthiazol-5-yl)benzyl)pyrrolidine-2-carboxamide]	•	0.9
Cc1ncsc1-c1ccc([C@@H](CN(C)C)NC(=O)[C@@H]2C[C@@H](O)CN2C(=O)[C@@H](NC(=O)COCCOCCOCCOc2cc(F)c([C@@H]3c4[nH]c5ccccc5c4C[C@@H](C)N3CC(C)(C)F)c(F)c2)C(C)(C)C)cc1 [Example 107, (2S,4R)-1-[(2S)-2-[[2-[2-[2-[2-[3,5-Difluoro-4-[(1R,3R)-2-(2-fluoro-2-methyl-propyl)-3-methyl-1,3,4,9-tetrahydropyrido[3,4-b]indol-1-yl]phenoxy]ethoxy]ethoxy]ethoxy]acetyl]amino]-3,3-dimethyl-butanoyl]-N-[(1S)-2-(dimethylamino)-1-[4-(4-methylthiazol-5-yl)phenyl]ethyl]-4-hydroxy-pyrrolidine-2-carboxamide]	••	1
Cc1ncsc1-c1ccc(CNC(=O)[C@@H]2C[C@@H](O)CN2C(=O)[C@@H](NC(=O)COCCCCCOc2ccc([C@@H]3c4[nH]c5ccccc5c4C[C@@H](C)N3CC(F)F)nc2)C(C)(C)C)cc1 [Example 17, (2S,4R)-1-((S)-2-(2-((5-((6-((1S,3R)-2-(2,2-Difluoroethyl)-3-methyl-2,3,4,9-tetrahydro-1H-pyrido[3,4-b]indol-1-yl)pyridin-3-yl)oxy)pentyl)oxy)acetamido)-3,3-dimethylbutanoyl)-4-hydroxy-N-(4-(4-methylthiazol-5-yl)benzyl)pyrrolidine-2-carboxamide]	•	41
Cc1ncsc1-c1ccc(CNC(=O)[C@@H]2C[C@@H](O)CN2C(=O)[C@@H](NC(=O)CCOCCCCCCCOc2cc(F)c([C@@H]3c4[nH]c5ccccc5c4C[C@@H](C)N3CC(C)(C)F)c(F)c2)C(C)(C)C)cc1 [Example 115, (2S,4R)-1-((S)-2-(3-((7-(3,5-difluoro-4-((1R,3R)-2-(2-fluoro-2-methylpropyl)-3-methyl-2,3,4,9-tetrahydro-1H-pyrido[3,4-b]indol-1-yl)phenoxy)heptyl)oxy)propanamido)-3,3-dimethylbutanoyl)-4-hydroxy-N-(4-(4-methylthiazol-5-yl)benzyl)pyrrolidine-2-carboxamide]	••	3.4
Cc1ncsc1-c1ccc(CNC(=O)[C@@H]2C[C@@H](O)CN2C(=O)[C@@H](NC(=O)COCCCOCCCCOc2cc(F)c([C@@H]3c4[nH]c5ccccc5c4C[C@@H](C)N3CC(C)(C)F)c(F)c2)C(C)(C)C)cc1 [Example 129, (2S,4R)-1-((S)-2-(2-(3-(4-(3,5-Difluoro-4-((1R,3R)-2-(2-fluoro-2-methylpropyl)-3-methyl-2,3,4,9-tetrahydro-1H-pyrido[3,4-b]indol-1-yl)phenoxy)butoxy)propoxy)acetamido)-3,3-dimethylbutanoyl)-4-hydroxy-N-(4-(4-methylthiazol-5-yl)benzyl)pyrrolidine-2-carboxamide]	••	0.8
Cc1ncsc1-c1ccc(CNC(=O)[C@@H]2C[C@@H](O)CN2C(=O)[C@@H](NC(=O)C(F)(F)OCCOCCCCOc2cc(F)c([C@@H]3c4[nH]c5ccccc5c4C[C@@H](C)N3CC(C)(C)F)c(F)c2)C(C)(C)C)cc1 [Example 121, (2S,4R)-1-((S)-2-(2-(2-(4-(3,5-Difluoro-4-((1R,3R)-2-(2-fluoro-2-methylpropyl)-3-methyl-2,3,4,9-tetrahydro-1H-pyrido[3,4-b]indol-1-yl)phenoxy)butoxy)ethoxy)-2,2-difluoroacetamido)-3,3-dimethylbutanoyl)-4-hydroxy-N-(4-(4-methylthiazol-5-yl)benzyl)pyrrolidine-2-carboxamide]	•	2.6
Cc1ncsc1-c1ccc(CNC(=O)[C@@H]2C[C@@H](OC(=O)[C@@H]3CCCN3)CN2C(=O)[C@@H](NC(=O)CCCCCCCCCCOc2cc(F)c([C@@H]3c4[nH]c5ccccc5c4C[C@@H](C)N3CC(C)(C)F)c(F)c2)C(C)(C)C)cc1 [Example 33, (3R,5S)-1-((S)-2-(11-(3,5-Difluoro-4-((1R,3R)-2-(2-fluoro-2-methylpropyl)-3-methyl-2,3,4,9-tetrahydro-1H-pyrido[3,4-b]indol-1-yl)phenoxy)undecanamido)-3,3-dimethylbutanoyl)-5-((4-(4-methylthiazol-5-yl)benzyl)carbamoyl)pyrrolidin-3-yl L-prolinate]	••	29
Cc1ncsc1-c1ccc([C@H](C)NC(=O)[C@@H]2C[C@@H](O)CN2C(=O)[C@@H](NC(=O)C(F)(F)OCCCOCCCOc2cc(F)c([C@@H]3c4[nH]c5ccccc5c4C[C@@H](C)N3CC(C)(C)F)c(F)c2)C(C)(C)C)cc1 [Example 120, (2S,4R)-1-((S)-2-(2-(3-(3-(3,5-Difluoro-4-((1R,3R)-2-(2-fluoro-2-methylpropyl)-3-methyl-2,3,4,9-tetrahydro-1H-pyrido[3,4-b]indol-1-yl)phenoxy)propoxy)propoxy)-2,2-difluoroacetamido)-3,3-dimethylbutanoyl)-4-hydroxy-N—((S)-1-(4-(4-methylthiazol-5-yl)phenyl)ethyl)pyrrolidine-2-carboxamide]	••	1.6
Cc1ncsc1-c1ccc([C@H](C)NC(=O)[C@@H]2C[C@@H](O)CN2C(=O)[C@@H](NC(=O)COCCCOCCCCCOc2cc(F)c([C@@H]3c4[nH]c5ccccc5c4C[C@@H](C)N3CC(C)(C)F)c(F)c2)C(C)(C)C)cc1 [Example 137, (2S,4R)-1-((S)-2-(2-(3-((5-(3,5-Difluoro-4-((R,3R)-2-(2-fluoro-2-methylpropyl)-3-methyl-2,3,4,9-tetrahydro-1H-pyrido[3,4-b]indol-1-yl)phenoxy)pentyl)oxy)propoxy)acetamido)-3,3-dimethylbutanoyl)-4-hydroxy-N—((S)-1-(4-(4-methylthiazol-5-yl)phenyl)ethyl)pyrrolidine-2-carboxamide]	••	0.8
Cc1ncsc1-c1ccc(CNC(=O)[C@@H]2C[C@@H](O)CN2C(=O)[C@@H](NC(=O)COCCCCOc2cc(F)c([C@@H]3c4[nH]c5ccccc5c4C[C@@H](C)N3CC(C)(C)F)c(F)c2)C(C)(C)C)cc1 [Example 14, (2S,4R)-1-((S)-2-(2-(4-(3,5-Difluoro-4-((1R,3R)-2-(2-fluoro-2-methylpropyl)-3-methyl-2,3,4,9-tetrahydro-1H-pyrido[3,4-b]indol-1-yl)phenoxy)butoxy)acetamido)-3,3-dimethylbutanoyl)-4-hydroxy-N-(4-(4-methylthiazol-5-yl)benzyl)pyrrolidine-2-carboxamide]	•	1.4
